Measured values as given in US20120071496A1, “Aminopyrimidinamides As Pest Control Agents” (Bayer CropScience AG, priority 2009, published 2012).

Assay: logP (HCOOH)
Assay type: physicochemical
Details: Table 2

| Structure (SMILES) | logP (HCOOH) | chromatographic logP (HCOOH (formic acid)) |
| --- | --- | --- |
| Cc1ncccc1C(=O)Nc1c(NC2CC2)ncnc1-c1ccc(F)cc1 [1-1] | 0.71 |  |
| CCc1ncccc1C(=O)Nc1c(NC2CC2)ncnc1-c1ccc(F)c(F)c1 [1-4] | 1.34 |  |
| Cc1ccccc1C(=O)Nc1c(NC2CC2)ncnc1-c1ccc(OC(F)(F)F)cc1 [1-72] | 2.35 |  |
| Cc1ncccc1C(=O)Nc1c(NC(C)C)ncnc1-c1ccc(OC(F)(F)F)cc1 [1-74] | 1.55 |  |
| O=C(Nc1c(NC2CC2)ncnc1-c1ccc(OC(F)(F)F)cc1)c1cccnc1Cl [1-75] | 1.99 |  |
| CC(C)Nc1ncnc(-c2ccc(OC(F)(F)F)cc2)c1NC(=O)c1cccnc1Cl [1-76] | 2.05 |  |
| O=C(Nc1c(NC2CC2)ncnc1-c1ccc(C(F)(F)F)cc1)c1ccccc1Cl [1-80] | 2.33 |  |
| Cc1ccccc1C(=O)Nc1c(NC2CC2)ncnc1-c1ccc(C(F)(F)F)cc1 [1-81] | 2.33 |  |
| O=C(Nc1c(NC2CC2)ncnc1-c1ccc(C(F)(F)F)cc1)c1cccnc1Cl [1-82] | 1.94 |  |
| Cc1ncccc1C(=O)Nc1c(NC2CC2)ncnc1-c1ccc(C(F)(F)F)cc1 [1-83] | 1.43 |  |
| O=C(Nc1c(NC2CC2)ncnc1-c1ccc(C(F)(F)F)cc1)c1cccnc1C(F)(F)F [1-84] | 2.19 |  |
| CC(C)c1ncccc1C(=O)Nc1c(NC2CC2)ncnc1-c1ccc(C(F)(F)F)cc1 [1-85] | 2.02 |  |
| CCc1ccccc1C(=O)Nc1c(NC2CC2)ncnc1-c1ccc(C(F)(F)F)cc1 [1-86] | 2.68 |  |
| Cc1nc(NC2CC2)c(NC(=O)c2cccnc2C)c(-c2ccc(C(F)(F)F)cc2)n1 [1-87] | 1.27 |  |
| Cc1nc(NC2CC2)c(NC(=O)c2ccccc2Cl)c(-c2ccc(C(F)(F)F)cc2)n1 [1-88] | 1.93 |  |
| CC(Nc1ncnc(-c2ccc(OC(F)(F)F)cc2)c1NC(=O)c1cccnc1Cl)C1CC1 (centres unmarked) [1-99] | 2.44 |  |
| O=C(Nc1c(NC(C2CC2)C2CC2)ncnc1-c1ccc(OC(F)(F)F)cc1)c1cccnc1Cl [1-111] | 2.65 |  |
| O=C(Nc1c(NC2CC2)ncnc1-c1ccc(OC(F)(F)F)cc1)c1ccccc1 [1-112] | 2.12 |  |
| O=C(Nc1c(NC2CC2)ncnc1-c1ccc(OC(F)(F)F)cc1)c1ccccc1Cl [1-113] | 2.41 |  |
| CCc1ncccc1C(=O)Nc1c(NC2CC2)ncnc1-c1ccc(SC(F)(F)F)cc1 [1-114] | 1.4 |  |
| Cc1ncccc1C(=O)Nc1c(NC2CC2)ncnc1-c1ccc(SC(F)(F)F)cc1 [1-116] | 1.81 |  |
| Cc1ncccc1C(=O)Nc1c(NC2CC2)ncnc1-c1ccc(OS(=O)(=O)C(C)C)cc1 [1-121] | 1.15 |  |

| Structure (SMILES) | logP (HCOOH) | chromatographic logP (HCOOH (formic acid)) |
| --- | --- | --- |
| Cc1ncccc1C(=O)Nc1c(NC2CC2)ncnc1-c1cc(F)c(C(F)(F)F)c(F)c1 [1-122] | 1.95 |  |
| CCc1ncccc1C(=O)Nc1c(NC2CC2)ncnc1-c1ccc(F)cc1 [1-124] | 1.03 |  |
| CCc1ncccc1C(=O)Nc1c(NC2CC2)ncnc1-c1ccc(Cl)cc1Cl [1-126, N-[4-Cyclopropylamino-6-(2,4-dichlorophenyl)pyrimidin-5-yl]-2-ethylnicotinamide] |  | 1.6 |
| CCc1ncccc1C(=O)Nc1c(NC2CC2)ncnc1-c1ccccc1 [1-127] | 1.01 |  |
| O=C(Nc1c(NC2CC2)ncnc1-c1ccccc1)c1cccnc1 [1-128] | 0.63 |  |
| O=C(Nc1c(NC2CC2)ncnc1-c1ccc(F)cc1)c1cccnc1Cl [1-129] | 1.27 |  |
| O=C(Nc1c(NC2CC2)ncnc1-c1ccc(Cl)cc1)c1cccnc1Cl [1-130] | 1.55 |  |
| CCc1ncccc1C(=O)Nc1c(NC2CC2)ncnc1-c1ccc(C#N)cc1 [1-133] | 1.10 |  |
| CCc1ncccc1C(=O)Nc1c(NC(C)(C)C)ncnc1-c1ccc(F)cc1 [1-134] | 1.53 |  |
| CCc1ncccc1C(=O)Nc1c(NC(C)(C)C)ncnc1-c1ccc(Cl)cc1 [1-135] | 1.86 |  |
| CCc1ncccc1C(=O)Nc1c(NC(C)(C)C)ncnc1-c1ccc(C#N)cc1 [1-136] | 1.81 |  |
| CCc1ncccc1C(=O)Nc1c(NC(C)(C)C)ncnc1-c1ccc(C(F)(F)F)cc1 [1-137] | 2.34 |  |
| CCc1ncccc1C(=O)Nc1c(NC(C)(C)C)ncnc1-c1ccc(OC(F)(F)F)cc1 [1-138] | 2.32 |  |
| CCc1ncccc1C(=O)Nc1c(NC2CC2)ncnc1-c1ccc(F)cc1Cl [1-139] | 0.79 |  |
| CCc1ncccc1C(=O)Nc1c(NC2CC2)ncnc1-c1ccccc1Cl [1-140] | 1.07 |  |
| CCc1ncccc1C(=O)Nc1c(NC(C)(C)C)ncnc1-c1ccc(Cl)cc1Cl [1-142] | 1.89 |  |
| CCc1ncccc1C(=O)Nc1c(NC(C)C2CC2)ncnc1-c1ccc(F)cc1 (centres unmarked) [1-143] | 1.47 |  |
| CCc1ncccc1C(=O)Nc1c(NC(C)C2CC2)ncnc1-c1ccc(Cl)cc1 (centres unmarked) [1-144] | 1.62 |  |
| CCc1ncccc1C(=O)Nc1c(NC(C)C2CC2)ncnc1-c1ccc(C#N)cc1 (centres unmarked) [1-145] | 1.67 |  |
| CCc1ncccc1C(=O)Nc1c(NC(C)C2CC2)ncnc1-c1ccc(OC(F)(F)F)cc1 (centres unmarked) [1-146] | 2.18 |  |
| CCc1ncccc1C(=O)Nc1c(NC(C)C2(Cl)CC2)ncnc1-c1ccc(F)cc1 (centres unmarked) [1-147] | 1.95 |  |
| CCc1ncccc1C(=O)Nc1c(NC(C)C2(Cl)CC2)ncnc1-c1ccc(Cl)cc1Cl (centres unmarked) [1-148] | 2.67 |  |

| Structure (SMILES) | logP (HCOOH) | chromatographic logP (HCOOH (formic acid)) |
| --- | --- | --- |
| CCc1ncccc1C(=O)Nc1c(NC(C)C2(Cl)CC2)ncnc1-c1ccc(Cl)cc1 (centres unmarked) [1-149] | 2.26 |  |
| CCc1ncccc1C(=O)Nc1c(NC(C)C2(Cl)CC2)ncnc1-c1ccc(C#N)cc1 (centres unmarked) [1-150] | 2.08 |  |
| CCc1ncccc1C(=O)Nc1c(NC(C)(C)C2CC2)ncnc1-c1ccc(Cl)cc1 [1-151] | 2.22 |  |
| CCc1ncccc1C(=O)Nc1c(NC(C)C2CC2)ncnc1-c1ccccc1 (centres unmarked) [1-152] | 1.32 |  |
| COc1ncccc1C(=O)Nc1c(NC2CC2)ncnc1-c1ccc(Cl)cc1 [1-154] | 1.83 |  |
| COc1ncccc1C(=O)Nc1c(NC2CC2)ncnc1-c1ccc(C#N)cc1 [1-156] | 1.59 |  |
| COc1ncccc1C(=O)Nc1c(NC2CC2)ncnc1-c1ccc(OC(F)(F)F)cc1 [1-157] | 2.21 |  |
| CCOc1ncccc1C(=O)Nc1c(NC2CC2)ncnc1-c1ccc(Cl)cc1 [1-158] | 2.54 |  |
| CCOc1ncccc1C(=O)Nc1c(NC2CC2)ncnc1-c1ccc(F)cc1 [1-159] | 1.84 |  |
| CCOc1ncccc1C(=O)Nc1c(NC2CC2)ncnc1-c1ccc(C#N)cc1 [1-160] | 1.80 |  |
| CCOc1ncccc1C(=O)Nc1c(NC2CC2)ncnc1-c1ccc(OC(F)(F)F)cc1 [1-161] | 2.64 |  |
| CC(C)Oc1ncccc1C(=O)Nc1c(NC2CC2)ncnc1-c1ccc(F)cc1 [1-163] | 2.19 |  |
| CC(C)Oc1ncccc1C(=O)Nc1c(NC2CC2)ncnc1-c1ccc(C#N)cc1 [1-164] | 2.27 |  |
| CC(C)Oc1ncccc1C(=O)Nc1c(NC2CC2)ncnc1-c1ccc(OC(F)(F)F)cc1 [1-165] | 2.32 |  |
| O=C(Nc1c(NC2CC2)ncnc1-c1ccc(Cl)cc1)c1cccnc1OCC(F)(F)F [1-166] | 2.48 |  |
| O=C(Nc1c(NC2CC2)ncnc1-c1ccc(F)cc1)c1cccnc1OCC(F)(F)F [1-167] | 2.12 |  |
| N#Cc1ccc(-c2ncnc(NC3CC3)c2NC(=O)c2cccnc2OCC(F)(F)F)cc1 [1-168] | 2.11 |  |
| O=C(Nc1c(NC2CC2)ncnc1-c1ccc(OC(F)(F)F)cc1)c1cccnc1OCC(F)(F)F [1-169] | 2.84 |  |
| O=C(Nc1c(NC2CC2)ncnc1-c1ccc(F)cc1)c1cccnc1C(F)(F)F [1-170] | 1.59 |  |
| O=C(Nc1c(NC2CC2)ncnc1-c1ccc(Cl)cc1)c1cccnc1C(F)(F)F [1-178] | 1.76 |  |
| O=C(Nc1c(NC2CC2)ncnc1-c1ccc(Cl)cc1)c1cccnc1C(F)F [1-179] | 1.58 |  |
| CCc1ncccc1C(=O)Nc1c(NC2CC2)ncnc1-c1ccc(F)cc1C [1-180] | 1.10 |  |

| Structure (SMILES) | logP (HCOOH) | chromatographic logP (HCOOH (formic acid)) |
| --- | --- | --- |
| CCc1ncccc1C(=O)Nc1c(NC2CC2)ncnc1-c1ccc(C#N)cc1C [1-181] | 1.22 |  |
| CCc1ncccc1C(=O)Nc1c(NC2CC2)ncnc1-c1ccccc1C [1-182] | 0.94 |  |
| CCc1ncccc1C(=O)Nc1c(NC2CC2)ncnc1-c1ccc(Cl)cc1F [1-187] | 1.46 |  |
| CCc1ncccc1C(=O)Nc1c(NC2CC2)ncnc1-c1ccc(Cl)cc1C [1-188] | 1.40 |  |
| CCc1ncccc1C(=O)Nc1c(NC2CC2)ncnc1-c1ccc(C(F)(F)F)cc1C [1-189] | 1.77 |  |
| CCc1nc(C(F)(F)F)ccc1C(=O)Nc1c(NC2CC2)ncnc1-c1ccc(F)cc1 [1-196] | 2.43 |  |
| O=C(Nc1c(NC2CC2)ncnc1-c1ccc(Cl)cc1)c1cc(Cl)cnc1C1CC1 [1-197] | 2.52 |  |
| O=C(Nc1c(NC2CC2)ncnc1-c1ccc(F)cc1)c1cc(Cl)cnc1C1CC1 [1-198] | 2.16 |  |
| Cc1nc(C(F)(F)F)ccc1C(=O)Nc1c(NC2CC2)ncnc1-c1ccc(Cl)cc1 [1-199] | 2.35 |  |
| CCc1ncccc1C(=O)Nc1c(NC2CCC2)ncnc1-c1ccc(F)cc1 [1-224] | 1.36 |  |
| CCc1ncccc1C(=O)Nc1c(NC2CC2C)ncnc1-c1ccc(Cl)cc1F (centres unmarked) [1-230] | 1.72 |  |
| O=C(Nc1c(NC2CC2)ncnc1-c1ccc(F)cc1)c1cccnc1C(=O)NC1CC1 [1-262] | 1.45 |  |
| O=C(Nc1c(NC2CC2)ncnc1-c1ccc(Cl)cc1)c1c(F)cccc1Cl [1-263] | 2.20 |  |
| CCc1ncccc1C(=O)Nc1c(NC2CC2)ncnc1-c1ccc(Cn2cnc(C(F)(F)F)n2)cc1 [1-273] | 1.11 |  |
| CCc1ncccc1C(=O)Nc1c(NC2CC2)nc(C)nc1-c1ccccc1 [1-275] | 0.76 |  |
| CCc1ncccc1C(=O)Nc1c(NC2CC2)nc(C)nc1-c1ccc(F)cc1 [1-276] | 0.88 |  |
| CCc1ncccc1C(=O)Nc1c(NC2CC2)nc(C)nc1-c1ccc(Cl)cc1Cl [1-277] | 1.34 |  |
| CCc1ncccc1C(=O)Nc1c(NC2CC2)nc(C)nc1-c1ccc(F)cc1F [1-278] | 1 |  |
| CCc1ncccc1C(=O)Nc1c(NC2CC2)nc(C)nc1-c1ccc(OC(F)(F)F)cc1 [1-279] | 1.44 |  |
| O=C(Nc1c(NC2CC2)ncnc1-c1ccc(Cn2cnc(C(F)(F)F)n2)cc1)c1cccnc1C1CC1 [1-287] | 1.45 |  |
